Results as given in patent publication US10117430B2, “Malononitrile compounds for controlling animal pests” (BASF SE, priority 2012, dated 2018).

Key:
Format in all cases: in vivo
[1] = system: Yellow Fever Mosquito (Aedes aegypti); experiment: whole plant or invertebrate; details: 48 h, in comparison with untreated controls, larval mortality after 2 days
In short: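 Freshly hatched larvae (5-15 per well) in 200 μl tap water; compounds formulated in 75% water/25% DMSO and sprayed at 2.5 μl per well at several concentrations, two replicates. Incubated 2 days at 28±1° C., 80±5% RH; larval mortality scored visually.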

[2] = system: Mediterranean Fruitfly (Ceratitis capitata); experiment: B.2 Mediterranean fruitfly microtiter diet test, egg and larval mortality; details: 120 h, in comparison with untreated controls, egg and larval mortality after 5 days
In short: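 Microtiter plates held insect diet with 50-80 C. capitata eggs; compounds in 75% water/25% DMSO were sprayed onto the diet at various concentrations, two replicates. Plates kept about 5 days at 28±1 °C and 80±5% RH, then egg and larval mortality scored visually.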

[3] = system: Green Peach Aphid (Myzus persicae); experiment: B.3 Green peach aphid systemic test, artificial diet under membrane; details: 72 h, concentration of the test solution 2500 mg/L, 3 days
In short: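 Systemic uptake from artificial liquid diet beneath a membrane, compound formulated in 75% water/25% DMSO and added to diet at several concentrations, two replicates. 5-8 adult aphids fed on treated diet for 3 days at about 23±1° C. and 50±5% RH. Mortality and fecundity scored visually.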

[4] = system: Orchid Thrips (Dichromothrips corbetti); experiment: B.4 Orchid thrips floral-immersion test; details: 96 h, in comparison with untreated controls, after 4 days
In short: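 Orchid flowers dipped in 300 ppm compound (acetone:water 1:1, 0.01% surfactant), dried, then caged with 10-15 adult D. corbetti from a lab colony. Held under continuous light at about 28° C. Live thrips counted after 4 days; mortality extrapolated from pre-treatment numbers.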

[5] = system: Boll Weevil (Anthonomus grandis); experiment: B.9 Boll weevil microtiter diet test, egg and larval mortality; details: 120 h, in comparison with untreated controls, egg and larval mortality after 5 days
In short: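 Insect diet carrying 20-30 A. grandis eggs per well was sprayed with compounds formulated in 75% water/25% DMSO, at various concentrations with two replicates. Plates were held at about 23±1° C and 50±5% RH for 5 days. Egg and larval mortality were then scored visually.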

[6] = system: Southern Armyworm (Spodoptera eridania); experiment: B.6 Southern armyworm test on sprayed lima bean plants; details: 96 h, 500 ppm, in comparison with untreated controls, 4 days after treatment
In short: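 Lima bean plants at the 1st true leaf stage were sprayed with cyclohexanone-based solutions diluted in 50% acetone/water with 0.01% nonionic surfactant. Once dry, plants were bagged with 10–11 larvae and held at 25 °C and 20–40% RH. Mortality and reduced feeding were scored at 4 days against untreated plants.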

[7] = system: Vetch Aphid (Megoura viciae); experiment: B.7 Vetch aphid test on broad bean leaf disks; details: foliar, 120 h, in comparison with untreated controls, 5 days
In short: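 Broad bean leaf disks sprayed with compounds in 25% DMSO/75% water at several concentrations, two replicates, then air-dried. Infested with 5-8 adult Megoura viciae and held 5 days at about 23±1 °C and 50±5% RH. Mortality and fecundity scored visually.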

N#CC(C#N)(Cc1ccc(C(F)(F)F)nc1)c1cc(F)cc(F)c1 [II-34]
≥ 75%: mortality at 2500 ppm [1] | mortality at 2500 ppm [2] | mortality at 2500 µg/mL [3] | mortality at 500 ppm [4] | mortality at 2500 ppm [5] | mortality at 500 ppm [6] | mortality at 2500 ppm [7]
